Experimental data reported in patent publication US11000601B2, “Conjugated biological molecules, pharmaceutical compositions and methods” (OBI Pharma, Inc., priority 2016, dated 2021).
Several values for one entry are separate records, joined by “and”; a condition that tells them apart may be missing. Equal entries are not always repeated. Square brackets hold non-standard residues; d marks the D form. Peptide text beside a SMILES is read from it. * marks the point of attachment. Dolaproine = CO[C@@H]([C@@H]1CCCN1)[C@@H](C)C(=O)O; Dil = CC[C@H](C)[C@H](NC)[C@@H](CC(=O)O)OC; X1 = C[C@@H](N*)[C@@H](O)c1ccccc1; NMeV = CN[C@H](C(=O)O)C(C)C

How the values were obtained:
[1] = Body weight, mortality and signs of overt toxicity in MCF-7 implanted female nude (nu/nu) mice; assay type: in vivo, mouse; settings: for Body Weight (g), individual animals No. 1-6: single animal; for Body Weight (g), individual mice: individual mice No. 1-6
Method: In a xenograft tumor model of human breast adenocarcinoma, MCF-7 (ATCC HTB-22) cells were subcutaneously (SC) implanted (2.0×10^7 cells in 1:1 matrigel/media mixture at 0.2 mL/mouse) into the right flank of female athymic (nu/nu) nude mice. Supplemental injections of estradiol cyclopentyl propionate (100 μg/mouse) were administered subcutaneously between the scapulae twice weekly, from one week prior to cell implantation to study completion. Tumor-implanted mice were divided into eleven treatment groups, each group containing six animals, and test agent administrations were initiated one day after cell implantation (denoted as Day 1). 3.1 Test Substances and Dosing Pattern
Two control groups received intravenous injections of vehicle (25 mM Sodium Citrate, pH 6.5+100 mM NaCl) once weekly for either six weeks (group 1) or two weeks (group 2).
Female (nu/nu) nude mice aged 6-7 weeks obtained from BioLasco Taiwan (under Charles River Laboratories Licensee) were used. The animals were housed in individually ventilated cages (IVG, 36 Mini Isolator System). The allocation for 3-5 animals was 27×20×14 in cm. All animals were maintained in a hygienic environment under controlled temperature (20-24° C.) and humidity (30-70%) with 12-hour light/dark cycle. Free access to standard lab diet (Oriental Yeast Co., Ltd., Japan) and autoclaved tap water were granted. All aspects of this work including housing, experimentation, and animal disposal were performed in general accordance with the “Guide for the Care and Use of Laboratory Animals: Eighth Edition” (National Academies Press, Washington, D.C., 2011) in our AAALAC-accredited laboratory animal facility. In addition, the animal care and use protocol was reviewed and approved by the IACUC at Eurofins Panlabs Taiwan, Ltd.
The tumor volumes, body weights, mortality, and signs of overt toxicity were monitored and recorded twice weekly for 77 days. Tumor volume (mm^3) was calculated according to the formula for a prolate ellipsoid: length (mm)×[width (mm)]^2×0.5. Tumor growth inhibition was calculated as T/C (treatment/control)×100%. A T/C value≤42% was considered significant anti-tumor activity. Two-way ANOVA followed by Bonferroni test was used to ascertain the statistical significance of groups compared to respective vehicle control (*p<0.05).

[2] = Body weight in male BALB/c nude mice bearing HPAC established tumors; settings: QW x 4, MMAE 0.191 mg/kg IP; for Body Weight (g), Mean: group mean; for Body Weight (g), Mean / Body Weight: ADC (OBI-999) and OBI-888 10 mg/kg IV; for Body Weight: individual animals
Method: Male nu/nu nude, aged 6-8 weeks, were obtained from Shanghai Lingchang and used. The mice were kept in individual ventilation cages at constant temperature and humidity with four animals in each cage (temperature: 20-26° C. and humidity: 40-70%). The cages were made of polycarbonate and the size was 300 mm×200 mm×180 mm. The bedding material was corn cob, which was changed twice per week. Animals had free access to irradiation sterilized dry granule food and drinking water during the entire study period. The identification labels for each cage contained the following information: number of animals, sex, strain, date received, treatment, study number, group number and the starting date of the treatment.

CC[C@H](C)[C@@H]([C@@H](CC(=O)N1CCC[C@H]1[C@H](OC)[C@@H](C)C(=O)N[C@H](C)[C@@H](O)c1ccccc1)OC)N(C)C(=O)[C@@H](NC(=O)[C@@H](NC)C(C)C)C(C)C [MMAE, monomethyl auristatin E] (H-[NMeV]V[Dil][Dolaproine]-X1)
Body Weight (g), individual animals No. 1-6 ([1]; 0.057 mg/kg × 6, IV once weekly, Day 53): 26 g (3×) and 28 g and 22 g and 24 g
Body Weight (g), individual animals No. 1-6 ([1]; 0.057 mg/kg × 6, IV once weekly, Day 56): 24 g and 27 g and 26 g (2×) and 23 g and 25 g
Body Weight (g), individual animals No. 1-6 ([1]; 0.057 mg/kg × 6, IV once weekly, Day 60): 27 g (3×) and 28 g and 24 g and 26 g
Body Weight (g), individual animals No. 1-6 ([1]; 0.057 mg/kg × 6, IV once weekly, Day 63): 27 g (2×) and 26 g (2×) and 29 g and 24 g
Body Weight (g), individual animals No. 1-6 ([1]; 0.057 mg/kg × 6, IV once weekly, Day 67): 27 g (2×) and 28 g (2×) and 26 g and 25 g
Body Weight (g), individual animals No. 1-6 ([1]; 0.057 mg/kg × 6, IV once weekly, Day 70): 27 g and 28 g (2×) and 25 g (2×) and 26 g
Body Weight (g), Mean ([1]; 0.057 mg/kg × 6, IV once weekly, Day 74, group mean): 26.7 g
Body Weight (g), individual animals No. 1-6 ([1]; 0.057 mg/kg × 6, IV once weekly, Day 74): 27 g (2×) and 29 g and 24 g and 25 g and 28 g
Body Weight (g), individual animals No. 1-6 ([1]; 0.057 mg/kg × 6, IV once weekly, Day 77): 28 g and 29 g and 23 g and 27 g (2×) and 24 g
Body Weight (g), individual mice ([1]; 0.057 mg/kg × 6 IV once weekly, Day 1): 23 g (2×) and 22 g (2×) and 24 g and 21 g
Body Weight (g), Mean ([1]; 0.057 mg/kg × 6 IV once weekly, Day 1, mean of 6 mice): 22.5 g
Body Weight (g), individual mice ([1]; 0.057 mg/kg × 6 IV once weekly, Day 5): 24 g (3×) and 22 g (3×)
Body Weight (g), Mean ([1]; 0.057 mg/kg × 6 IV once weekly, Day 5, mean of 6 mice): 23.0 g
Body Weight (g), individual mice ([1]; 0.057 mg/kg × 6 IV once weekly, Day 8): 26 g and 23 g (2×) and 24 g (2×) and 25 g
Body Weight (g), Mean ([1]; 0.057 mg/kg × 6 IV once weekly, Day 8, mean of 6 mice): 24.2 g
Body Weight (g), individual mice ([1]; 0.057 mg/kg × 6 IV once weekly, Day 12): 26 g and 24 g (2×) and 25 g (3×)
Body Weight (g), individual mice ([1]; 0.057 mg/kg × 6 IV once weekly, Day 15): 27 g and 25 g (4×) and 26 g
Body Weight (g), individual mice ([1]; 0.057 mg/kg × 6 IV once weekly, Day 19): 26 g and 24 g and 25 g (4×)
Body Weight (g), Mean ([1]; 0.057 mg/kg × 6 IV once weekly, Day 19, mean of 6 mice): 25.0 g
Body Weight (g), individual mice ([1]; 0.057 mg/kg × 6 IV once weekly, Day 22): 27 g and 25 g (2×) and 24 g and 26 g (2×)
Body Weight (g), individual mice ([1]; 0.057 mg/kg × 6 IV once weekly, Day 26): 27 g and 25 g (2×) and 24 g (2×) and 26 g
Body Weight (g), Mean ([2]; Day 0): 24.2 g
Body Weight ([2]; Day 0): 25.4 g and 24.2 g and 23.3 g and 24.0 g and 22.7 g
Body Weight (g), Mean ([2]; Day 3): 22.1 g
Body Weight ([2]; Day 3): 21.8 g and 22.4 g and 21.5 g and 21.6 g (2×) and 24.0 g and 20.7 g and 23.1 g
Body Weight (g), Mean ([2]; Day 4): 21.9 g
Body Weight ([2]; Day 4): 21.0 g and 21.3 g and 20.5 g and 22.0 g and 19.6 g and 22.1 g
Body Weight (g), Mean ([2]; Day 7): 23.6 g
Body Weight ([2]; Day 7): 18.8 g and 25.1 g and 27.0 g and 21.7 g and 23.8 g
Body Weight ([2]; Day 9): 22.2 g
Body Weight ([2]; Day 10): 26.0 g
Body Weight ([2]; Day 14): 24.4 g and 26.0 g
Body Weight ([2]; Day 17): 23.9 g and 26.0 g and 23.6 g
Body Weight ([2]; Day 21): 23.8 g
Body Weight (g), Mean ([2]; Day 28): 25.4 g
Body Weight ([2]; Day 31): 25.0 g and 25.4 g
Body Weight (g), Mean ([2]; Day 35): 26.0 g
Body Weight ([2]; Day 35): 27.2 g
Body Weight ([2]; Day 37): 26.7 g and 24.0 g
Animal status (Died / Euthanized) ([2]; individual animal, OBI-888 10 mg/kg IV): Died and Euthanized
